Values of other authors, collected in patent US20080102106A1, “Wound Healing Composition Comprising Substances From Diptera Larvae” (ALPHA-BIOCARE GMBH, priority 2005, published 2008).

Conditions: many cases of use in humans, dermatological studies

Compound | wound healing effect
NC(=O)NC1NC(=O)NC1=O (stereo not drawn) [allantoin] | do not have any wound healing effect
N [ammonium] | do not have any wound healing effect
NC(N)=O [urea] | do not have any wound healing effect
